SMILES | melting point [°C]
C=CC(=O)N1C(C)(C)CC(OC(=O)CCCC(C)(C)c2cc(OC)c(C(C)(C)CCCC(=O)OC3CC(C)(C)N(C(=O)C=C)C(C)(C)C3)cc2O)CC1(C)C | 50 to 52
CCOCc1nc2c(N)nc3ccccc3c2n1NCCCNS(C)(=O)=O | 148 to 150
CCCCCCCSc1nn2c(=O)c(C)c(F)nc2s1 | 78 to 91
CCc1nc2c(N)nc3ccccc3c2n1CC1(O)CCCC1 | 210
O=C(O)CCCCCCc1ccccc1CO | 75 to 77
CC(C)(C)OC(=O)NCC(COC(C(F)(F)F)(C(F)(F)F)C(F)(F)F)(COC(C(F)(F)F)(C(F)(F)F)C(F)(F)F)C(=O)O | 128 to 130
COc1ccc(-c2csc(N)n2)cc1OC1CC2CCC1C2 (configuration not stated) | 168 to 178
N#Cc1c(N2CCCC2)c(F)cc2c(=O)c(C(=O)O)cn(C3CC3)c12 | 274 to 276
CC(C)(C)NS(=O)(=O)Cc1cc(Br)c(NC(=O)C(F)(F)F)c(Br)c1 | 166 to 167
COC(=O)c1cc(OC)c(Br)cc1Cl | 78 to 79
CC(C)c1nc2c(c(-c3ccc(F)cc3)c1CO)CCC2(C)C | 141 to 143
N#CC1(Nc2ccccc2)CCN(C2C3CCCC2CCC3)CC1 (configuration not stated) | 168
CCOC(=O)C(C)c1ccc2nc(N)sc2c1 (configuration not stated) | 146
O=C1c2ccc(Cl)cc2CC1Br (configuration not stated) | 69 to 76
O=NN(CCCl)C(=O)NCc1ccccn1 | 70
Cc1cc(N2CNC(=O)C23CCN(CCCn2c(=O)[nH]c4ccccc42)CC3)ccc1Cl | 209
CC(=O)Oc1c(C)c(C)c2c(c1C)CCC(C)(C(=O)OCCNCc1cc(N3CCCC3)nc(N3CCCC3)n1)O2 (configuration not stated) | 69.5 to 76
C=C(C)Cn1c(=O)n(C)c(=O)c2c(Sc3ccccn3)n(Cc3cccc4ccccc34)nc21 | 118 to 120
CN1CCN(CCCn2c(N)nc3ccccc32)CC1 | 195 to 197

SMILES | melting point [°C]
Cc1c(C)c2c(c(C)c1N)C(C)C(C)(N1CCN(C)CC1)O2 (configuration not stated) | 76 to 77
CN1C(=O)c2cscc2Nc2cc(Cl)c(Cl)cc21 | 265 to 267
Cc1cc(-c2csc(NC(=N)N)n2)c[nH]1 | 235 to 237
Cc1ccc(-c2nc(CCl)co2)s1 | 84 to 85
COc1cn(C)c(=O)c(OS(=O)(=O)C(F)(F)F)n1 | 107 to 108
CCCN(CCC)c1nc2c(N3CCCC3)nccc2c(=O)[nH]1 | 220
CCCCCCCCCCCCCCCCNc1ccc(C(=O)NS(C)(=O)=O)cc1 | 173 to 175
CCN(CC)C(=O)c1c(S(N)(=O)=O)cc(OC)c(OC)c1C(C)C | 138 to 140
CCC1CC2(C)C(CCC3C2CCC2(C)C(OC)CCC32)CC1=O (configuration not stated) | 105 to 107
CCCCCC(O)(c1cncnc1)C(C)(C)C (configuration not stated) | 66 to 67
CS(=O)(=O)c1ccc(-c2cnn(CC(F)=C(F)F)c(=O)c2-c2ccc(F)cc2)cc1 | 154 to 156
COc1ccc(C=O)nc1I | 118 to 121
CC(=O)Nc1nc(S(=O)(=O)Cl)n[nH]1 | 177
CCCCc1ncc(C=CC(=O)O)n1Cc1ccccc1Cl | 178 to 179
CC(=O)c1sc(-c2ccncc2)c(-c2ccncc2)c1C | 140 to 142
COC(=O)/C=C/c1ccc(C)cc1Br | 70
Cn1c(-c2ccccc2)nc2ncnn2c1=S | 246 to 248
OCC1OC(n2cnc3c(NCC(c4ccccc4)c4ccc(F)cc4)nc(Cl)nc32)C(O)C1O (configuration not stated) | 120 to 123
CCN(CC)C(=S)NC1C=C2c3cccc4c3c(cn4CC)CC2N(C)C1 (configuration not stated) | 108

Second part, the compound after the results:

melting point [°C] | SMILES
239 to 240 | CC1(C)CC(=O)C2=C(C1)NC1=C(C(=O)CC(C)(C)C1)C2c1ccc([N+](=O)[O-])c(OCc2ccccc2)c1
176 to 177 | Cc1c(C(=O)Nc2ccc(N3CCN(CCO)CC3)c(C#N)c2)cnn1-c1cccc(Cl)c1
208 to 210 | O=S1(=O)N=C(NC2CCN(Cc3ccccc3)C2)Nc2ccc(Cl)cc21 (configuration not stated)
166 to 167 | C[C@H]1c2cc(F)ccc2-c2ccccc2N1S(=O)(=O)c1ccc(OS(N)(=O)=O)cc1
355 to 357 | CCc1ccccc1-n1c(=O)[nH]c2c(C(N)=O)nc(-c3cccc(O)c3)nc21
189 to 191 | CN(Cc1ccc2cc(NS(C)(=O)=O)ccc2n1)C1Cc2ccc(NS(C)(=O)=O)cc2C1 (configuration not stated)
80 to 84 | COC(=O)C=CC(=O)c1cc(F)ccc1N
> 320 | O=C(O)c1ccc2nc3c(c(=O)n2c1)CCC3=Cc1cccc(O)c1
122 to 125 | CCC(Oc1ccc(-n2nnc3cc(C(F)(F)F)ccc32)cc1)C(=O)O (configuration not stated)
158 to 160 | CC(C)Oc1c(C(N)=O)oc2ccc(OCc3ccccc3)cc12
259 to 262 | O=C(O)c1ccc2c(c1)CCN2Cc1cccc([N+](=O)[O-])c1
165 to 167 | CC(C)(C)OC(=O)N1CCN(C(=O)/C=C/c2ccc(Sc3ccc4c(c3)OCCO4)c([N+](=O)[O-])c2)CC1
227 to 230 | Cc1c(N2CC3(CC3)[C@](C)(N)C2)ccc2c(=O)c(C(=O)O)cn(C3CC3)c12
154 to 156 | O=C(NNS(=O)(=O)c1ccccc1)c1ccccc1Br
356 to 360 | Nc1nc(-c2cc(F)cc(F)c2)nc2nc(-c3ccco3)nn12
60 to 61 | CC(=O)OC(C)Cc1ccc(-c2ccc(C(C)=O)cc2)cc1 (configuration not stated)
194 to 195 | COc1ccc2cc(-c3cc4ccccc4o3)ccc2c1

melting point [°C] | SMILES
78 to 79 | COc1ccc(Br)c2cc(C(=O)c3cccc(C(F)(F)F)c3)oc12
115 to 116 | COc1cc([N+](=O)[O-])c2ncccc2c1OCc1ccc(Cl)cc1
110 to 111 | Cn1nnnc1-c1nccn1Cc1ccccc1
178 to 183 | NC(=O)Cc1ccccc1Cn1ccc(OCc2ccc(F)cc2F)c(Br)c1=O
186 to 189 | Cn1ccc2c3c(c(C(=O)OCc4ccccc4)cc21)C(=O)NC3=O
175 to 177 | NC(=S)Nc1ccccc1-c1ccc(Cl)cc1
136 to 137 | O=C1Nc2cc(F)ccc2C1CCCCN1CCN(c2ccccn2)CC1 (configuration not stated)
85 to 86 | COC(=O)c1cc2c(Br)cccc2n1C
124 to 126 | COc1cc(OC)nc(C(=O)c2nccc(-c3ccccc3)c2C(=O)OCc2ccccc2)n1
97 to 113 | O=C(c1ccc(F)cc1)C1CCN(CCN(C(=O)c2cccc([N+](=O)[O-])c2)c2ccc(F)cc2)CC1
88 to 89 | CCCc1nn(-c2ccc(C(F)(F)F)cn2)cc1CCCOc1cc(CC(=O)O)ccc1F
136 to 139 | CC(=NOCc1ccccc1)c1cccc(S(N)(=O)=O)c1
171 to 177 | S=C(NCCc1cccc(Cl)c1)Nc1nc2ccccc2[nH]1
120 to 123 | COc1cc(Nc2c(C#N)cnc3cc(-c4ccc(CN5CCC(O)CC5)s4)ccc23)c(Cl)cc1Cl
105 to 106 | CCOC(=O)/C=C/C=C(c1cccc([N+](=O)[O-])c1)c1cccc([N+](=O)[O-])c1
182 | N#CCCc1ccc(C(=O)O)cc1
182 to 185 | Cc1ccc(C)c(C2CC(=O)C(C(=O)c3ccccc3)=C(O)C2)c1 (configuration not stated)

From a melting point compilation (Tetko et al.; mined from patent text by program, amines drawn as free bases though some values may be those of a salt)
